Laboratory results from the NIST ThermoML archive (doi:10.1021/acs.jced.6b00350).
“And” between values parts separate entries of the source, which are not always exact repeats. Equal values may be shown once.

Details: Liquid, Hot wire method

FC(F)CC(F)(F)F [1,1,1,3,3-pentafluoropropane]
Details | thermal conductivity
242.09 K, 15292 kPa | 0.1107 W/m/K
242.09 K, 33385 kPa | 0.1154 W/m/K
242.09 K, 46702 kPa | 0.1187 W/m/K
242.09 K, 46703 kPa | 0.1195 W/m/K
242.1 K, 15296 kPa | 0.1107 W/m/K
242.1 K, 21026 kPa | 0.1124 W/m/K
242.1 K, 21045 kPa | 0.1126 W/m/K
242.1 K, 33384 kPa | 0.1155 W/m/K
242.1 K, 53712 kPa | 0.1203 W/m/K
242.11 K, 9885 kPa | 0.1091 W/m/K
242.11 K, 9889 kPa | 0.1086 W/m/K
242.11 K, 26987 kPa | 0.1139 W/m/K
242.11 K, 39778 kPa | 0.1171 W/m/K
242.12 K, 26965 kPa | 0.1139 W/m/K
242.12 K, 39775 kPa | 0.1171 W/m/K
242.12 K, 53701 kPa | 0.1203 W/m/K
242.12 K, 61286 kPa | 0.1221 W/m/K
242.13 K, 61278 kPa | 0.1219 W/m/K
242.14 K, 68636 kPa | 0.1235 W/m/K
242.14 K, 68676 kPa | 0.1235 W/m/K
242.19 K, 312 kPa | 0.1058 W/m/K and 0.1064 W/m/K
242.19 K, 4998 kPa | 0.1075 W/m/K
242.19 K, 5009 kPa | 0.1078 W/m/K
242.51 K, 46692 kPa | 0.1189 W/m/K
242.52 K, 46700 kPa | 0.1191 W/m/K
242.54 K, 33390 kPa | 0.1155 W/m/K
242.54 K, 33403 kPa | 0.1154 W/m/K
242.54 K, 53700 kPa | 0.1204 W/m/K
242.54 K, 53711 kPa | 0.1205 W/m/K
242.54 K, 61277 kPa | 0.1221 W/m/K
242.55 K, 15291 kPa | 0.1107 W/m/K
242.55 K, 21035 kPa | 0.1123 W/m/K
242.55 K, 21038 kPa | 0.1121 W/m/K
242.55 K, 39775 kPa | 0.117 W/m/K
242.55 K, 39776 kPa | 0.1173 W/m/K
242.55 K, 61245 kPa | 0.122 W/m/K
242.55 K, 68688 kPa | 0.1238 W/m/K
242.56 K, 26980 kPa | 0.1136 W/m/K
242.56 K, 26983 kPa | 0.114 W/m/K
242.56 K, 68673 kPa | 0.1236 W/m/K
242.57 K, 9883 kPa | 0.109 W/m/K
242.58 K, 9889 kPa | 0.1092 W/m/K
242.65 K, 5012 kPa | 0.1074 W/m/K
242.66 K, 307 kPa | 0.1056 W/m/K
242.66 K, 5012 kPa | 0.1074 W/m/K
242.67 K, 311 kPa | 0.1059 W/m/K
242.99 K, 46699 kPa | 0.1186 W/m/K
242.99 K, 46703 kPa | 0.1187 W/m/K
242.99 K, 53703 kPa | 0.1204 W/m/K
242.99 K, 53705 kPa | 0.1205 W/m/K
243 K, 61280 kPa | 0.122 W/m/K
243.01 K, 33387 kPa | 0.1153 W/m/K
243.01 K, 61272 kPa | 0.122 W/m/K
243.01 K, 68624 kPa | 0.1235 W/m/K
243.01 K, 68665 kPa | 0.1235 W/m/K
243.02 K, 33391 kPa | 0.1157 W/m/K
243.02 K, 39783 kPa | 0.117 W/m/K
243.03 K, 39791 kPa | 0.1173 W/m/K
243.04 K, 15285 kPa | 0.1108 W/m/K
243.04 K, 21046 kPa | 0.1119 W/m/K
243.04 K, 26979 kPa | 0.1139 W/m/K
243.05 K, 21037 kPa | 0.1122 W/m/K
243.05 K, 26975 kPa | 0.1137 W/m/K
243.06 K, 15300 kPa | 0.1105 W/m/K
243.07 K, 9881 kPa | 0.1091 W/m/K
243.07 K, 9885 kPa | 0.1094 W/m/K
243.16 K, 5024 kPa | 0.1074 W/m/K
243.17 K, 305 kPa | 0.1059 W/m/K
243.17 K, 5015 kPa | 0.1075 W/m/K
243.18 K, 306 kPa | 0.1061 W/m/K
261.13 K, 36952 kPa | 0.1131 W/m/K
261.13 K, 36968 kPa | 0.1135 W/m/K
261.17 K, 4289 kPa | 0.1031 W/m/K
261.17 K, 4298 kPa | 0.1027 W/m/K
261.17 K, 8849 kPa | 0.103 W/m/K
261.19 K, 14126 kPa | 0.1062 W/m/K
261.2 K, 14118 kPa | 0.106 W/m/K
261.21 K, 254 kPa | 0.1005 W/m/K
261.21 K, 260 kPa | 0.1005 W/m/K
261.21 K, 25237 kPa | 0.1087 W/m/K
261.22 K, 25223 kPa | 0.1081 W/m/K
261.23 K, 31202 kPa | 0.1113 W/m/K
261.23 K, 31204 kPa | 0.1116 W/m/K
261.52 K, 43978 kPa | 0.1147 W/m/K
261.55 K, 51260 kPa | 0.1154 W/m/K
261.55 K, 51262 kPa | 0.1153 W/m/K
261.56 K, 8838 kPa | 0.1026 W/m/K
261.57 K, 8847 kPa | 0.1029 W/m/K
261.57 K, 58812 kPa | 0.1174 W/m/K
261.58 K, 14132 kPa | 0.1051 W/m/K
261.58 K, 58797 kPa | 0.1178 W/m/K
261.6 K, 25212 kPa | 0.1084 W/m/K
261.6 K, 31216 kPa | 0.1112 W/m/K
261.61 K, 256 kPa | 0.09949 W/m/K
261.61 K, 263 kPa | 0.09978 W/m/K
261.61 K, 19564 kPa | 0.1066 W/m/K
261.61 K, 68826 kPa | 0.1202 W/m/K
261.61 K, 68837 kPa | 0.1206 W/m/K
261.62 K, 19569 kPa | 0.107 W/m/K
261.63 K, 68933 kPa | 0.1198 W/m/K
261.64 K, 68930 kPa | 0.1197 W/m/K
261.9 K, 36964 kPa | 0.1125 W/m/K
261.92 K, 43962 kPa | 0.1136 W/m/K
261.93 K, 43919 kPa | 0.1146 W/m/K
261.94 K, 51257 kPa | 0.1157 W/m/K
261.95 K, 51262 kPa | 0.1157 W/m/K
261.96 K, 58819 kPa | 0.1174 W/m/K
261.96 K, 58829 kPa | 0.1179 W/m/K
261.99 K, 68802 kPa | 0.1199 W/m/K
261.99 K, 68824 kPa | 0.1198 W/m/K
262 K, 8855 kPa | 0.1037 W/m/K
262 K, 8858 kPa | 0.1032 W/m/K
262 K, 14134 kPa | 0.105 W/m/K
262.01 K, 4294 kPa | 0.1017 W/m/K
262.01 K, 4301 kPa | 0.1014 W/m/K
262.01 K, 14121 kPa | 0.1049 W/m/K
262.01 K, 25254 kPa | 0.1088 W/m/K
262.01 K, 25264 kPa | 0.1087 W/m/K
262.01 K, 31199 kPa | 0.1102 W/m/K and 0.1104 W/m/K
262.01 K, 68921 kPa | 0.1199 W/m/K
262.02 K, 68914 kPa | 0.1199 W/m/K
262.04 K, 19538 kPa | 0.1069 W/m/K
262.04 K, 19563 kPa | 0.1063 W/m/K
262.06 K, 260 kPa | 0.1002 W/m/K
262.06 K, 263 kPa | 0.1001 W/m/K
262.33 K, 36929 kPa | 0.1119 W/m/K
262.35 K, 36937 kPa | 0.1119 W/m/K
262.36 K, 43961 kPa | 0.1135 W/m/K
262.36 K, 43965 kPa | 0.1138 W/m/K
262.37 K, 51242 kPa | 0.1157 W/m/K
262.38 K, 51253 kPa | 0.1155 W/m/K
262.39 K, 58814 kPa | 0.1181 W/m/K
262.39 K, 58816 kPa | 0.1176 W/m/K
262.4 K, 68835 kPa | 0.1199 W/m/K
262.41 K, 68836 kPa | 0.1198 W/m/K
262.43 K, 68875 kPa | 0.1199 W/m/K
262.43 K, 68907 kPa | 0.1196 W/m/K
262.46 K, 8826 kPa | 0.1033 W/m/K
262.46 K, 25272 kPa | 0.1083 W/m/K
